PMC3692424, “A New Type of Na^+-Driven ATP Synthase Membrane Rotor with a Two-Carboxylate Ion-Coupling Motif” (PLoS Biology, 2013)

Legend:
[1] = target: T1, F. nucleatum F1Fo-ATP synthase (purified; c-ring site of DCCD) (Fusobacterium nucleatum, UniProt Q8RGD7); test: inhibition of ATP hydrolysis, ATP-regenerating assay; assay type: biochemical; conditions: covalent (Glu65 of subunit c); 20 min preincubation at 25 °C, 50 mM MOPS, 2 mM MgCl2, pH 7.5; no added Na+
T1 construct: gene atpE; same native holoenzyme as P1; entry split because DCCD modifies Glu65 of subunit c; with ATP synthase subunit alpha; ATP synthase subunit beta; ATP synthase gamma chain; ATP synthase subunit delta; ATP synthase epsilon chain; ATP synthase subunit a; ATP synthase subunit b

[2] = target: T2, F. nucleatum c11 ring (isolated c-ring) (Fusobacterium nucleatum, UniProt Q8RGD7); test: fluorescence increase on labelling; SDS-PAGE under UV light; assay type: binding; conditions: covalent (Glu65); 100 µM NCD-4, MES pH 5.7, 1.5% n-octyl-β-D-glycoside, no Na+
T2 construct: gene atpE; isolated c11 ring from hybrid ATP synthase (I. tartaricus F1-ab2) expressed in E. coli DK8; detergent-solubilized
T2 sequence (Q8RGD7 whole entry): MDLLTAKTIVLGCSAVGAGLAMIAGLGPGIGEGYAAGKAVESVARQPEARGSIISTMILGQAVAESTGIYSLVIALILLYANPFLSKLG

| SMILES | inhibition of ATP hydrolysis, ATP-regenerating assay [1] | fluorescence increase on labelling; SDS-PAGE under UV light [2] |
| --- | --- | --- |
| C(=NC1CCCCC1)=NC1CCCCC1 [DCCD, N,N′-dicyclohexylcarbodiimide] | The ATPase activity of the enzyme was inhibited by DCCD in a concentration-dependent manner | – |
| CN(C)c1ccc(N=C=NC2CCCCC2)c2ccccc12 [NCD-4, N-cyclohexyl-N′-(4-(dimethylamino)-α-naphthyl)-carbodiimide] | – | NCD-4 modifies Glu65 in the isolated c-ring |
